These results are taken from patent publication US11584766B2, “Nicotinamide phosphoribosyltransferase inhibitors and methods for use of the same” (THE TRUSTEES OF INDIANA UNIVERSITY, priority 2018, dated 2023).

For series [1] the following is noted: in vivo; cited from earlier work.
Series [2] deals with human pulmonary artery endothelial cells (hPAECs). Nature of the series: CyQUANT Direct Assay (proliferation), hPAEC. The series is classed as cell-based. As to conditions: for IC50: hPAEC, 24 h treatment; for effect on HPAEC proliferation (CYQuant Direct assay): dose response, FIG. 5. The procedure:
(§1) The effect of the compounds disclosed herein on the viability, proliferation, and apoptosis of human pulmonary artery endothelial cells (“hPAECs,”) and human pulmonary artery smooth muscle cells (“hPASMCs”) was determined using the PrestoBlue Assay (viability), CYQuant Direct or BrdU Assay (proliferation) or Tunel Assay (apoptosis), as described below.
(§2) HPAECs (1×10^4 cells/well) or HPASMCs (2.5×10^3 cells/well) were seeded in 96-well plates for 24 h in full-serum tissue culture medium. The full medium was removed prior to treatment with a NAMPT inhibitor prepared in medium containing 0.1% serum. NAMPT inhibitors were solubilized in 100% DMSO, unless otherwise indicated, prior to preparation of the dose response curve in 100% DMSO. The treatment dose response curve was diluted in 0.1% serum tissue culture medium and administered to cells for 24 h. DMSO diluted in the same medium was used as the vehicle control. Cell viability was measured according to the manufacturer's protocol by adding the PrestoBlue Cell Viability Reagent (ThermoFisher Scientific, #A13261) to cells for 20 min at 37° C. in a tissue culture incubator, followed by reading fluorescence at ex560/em590. Cell proliferation was measured, either in the same wells or in separate experiments, by adding the CyQuant Direct Confirmation Reagent (ThermoFisher Scientific, #C35011) for 1 h at 37° C. in a tissue culture incubator, followed by reading fluorescence at ex485/em538. Proliferation was also measured, in separate experiments, using the BrdU Cell Proliferation Assay (Calbiochem, #QIA58). After treatment with a NAMPT inhibitor for 24 h, BrdU was added to the cells in the presence of the inhibitor, for an additional 24 h and BrdU incorporation was detected according to the manufacturer's protocol. Apoptosis was analyzed by seeding cells (1×10^5 cells/well) in 6-well plates for 24 h in full-serum medium, followed by treatment with a NAMPT inhibitor for 24 h in full-serum medium. Tunel staining and detection was performed using the Tunel Assay Kit (Abcam, #ab66110) according to the manufacturer's protocol.

Series [3] relates to vascular remodeling caused by PAH. Particulars: rat models; cited from earlier work.
For the next series, the target named is T1, NAMPT (Homo sapiens, UniProt P43490).
T1 construct: purchased MBL International Corporation (CycLex NAMPT Colorimetric Assay Kit Ver.2)
T1 sequence (P43490 whole entry): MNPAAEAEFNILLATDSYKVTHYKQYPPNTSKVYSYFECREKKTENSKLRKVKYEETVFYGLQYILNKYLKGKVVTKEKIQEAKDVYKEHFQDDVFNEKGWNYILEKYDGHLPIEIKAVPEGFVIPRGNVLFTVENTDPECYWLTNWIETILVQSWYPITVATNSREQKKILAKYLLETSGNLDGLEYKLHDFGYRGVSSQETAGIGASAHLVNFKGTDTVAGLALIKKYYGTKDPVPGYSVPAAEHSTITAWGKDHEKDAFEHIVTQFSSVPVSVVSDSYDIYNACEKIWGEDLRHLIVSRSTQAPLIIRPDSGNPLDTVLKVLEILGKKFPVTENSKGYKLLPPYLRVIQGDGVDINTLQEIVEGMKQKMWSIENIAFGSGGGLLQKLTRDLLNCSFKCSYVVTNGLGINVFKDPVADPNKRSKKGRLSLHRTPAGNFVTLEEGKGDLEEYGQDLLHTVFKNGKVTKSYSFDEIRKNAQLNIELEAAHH
Nature of the series: CycLex NAMPT Colorimetric Assay. The class given is biochemical. Particulars: CycLex NAMPT Colorimetric Assay Kit; read-out: NAMPT Inhibition IC50. As to the method: The ability of the compounds of the disclosure to inhibit NAMPT was determined using the CycLex NAMPT Colorimetric Assay Kit Ver.2 by MBL International Corporation.
The assay detects NAMPT activity in recombinant NAMPT or endogenous NAMPT immunoprecipiated from cell lysates according to the scheme shown in FIG. 3. In this method, NAMPT converts nicotinamide to nicotinamide mononucleotide (“NMN”). Subsequently, nicotinamide mononucleotide adenylyltransferase 1 (“NMNAT1”) converts NMN to NAD^+. Resultant NAD^+ can be measured by enzyme cycling reaction using alcohol dehydrogenase (“ADH”), diaphorase and WST-1.

The test system of series [4] is human pulmonary artery smooth muscle cells (hPASMCs). Nature of the series: Tunel Assay (apoptosis), hPASMC. The series is classed as cell-based. As to conditions: Homo sapiens. As to the method:
as §1
HPAECs (1×10^4 cells/well) or HPASMCs (2.5×10^3 cells/well) were seeded in 96-well plates for 24 h in full-serum tissue culture medium. The full medium was removed prior to treatment with a NAMPT inhibitor prepared in medium containing 0.1% serum. NAMPT inhibitors were solubilized in 100% DMSO, unless otherwise indicated, prior to preparation of the dose response curve in 100% DMSO. […] Cell viability was measured according to the manufacturer's protocol by adding the PrestoBlue Cell Viability Reagent (ThermoFisher Scientific, #A13261) to cells for 20 min at 37° C. in a tissue culture incubator, followed by reading fluorescence at ex560/em590. Cell proliferation was measured, either in the same wells or in separate experiments, by adding the CyQuant Direct Confirmation Reagent (ThermoFisher Scientific, #C35011) for 1 h at 37° C. in a tissue culture incubator, followed by reading fluorescence at ex485/em538. Proliferation was also measured, in separate experiments, using the BrdU Cell Proliferation Assay (Calbiochem, #QIA58). […]

Series [5] deals with human pulmonary artery endothelial cells (hPAECs). The series can be described thus: PrestoBlue Assay (viability), hPAEC. The series is classed as cell-based. The procedure:
as §1, §2

For series [6], the system named is human pulmonary artery smooth muscle cells (hPASMCs). Nature of the series: CyQUANT Direct Assay (proliferation), hPASMC. The class given is cell-based. Particulars: dose response, FIG. 9. The procedure: as §1, §2
Series [7] relates to human pulmonary artery endothelial cells (hPAECs). The series can be described thus: Tunel Assay (apoptosis), hPAEC. The series is classed as cell-based. The procedure: as §1, §2
The test system of series [8] is human pulmonary artery smooth muscle cells (hPASMCs). The series can be described thus: PrestoBlue Assay (viability), hPASMC. The series is classed as cell-based. The procedure:
as §1, §2

Series [9] relates to human pulmonary artery endothelial cells (hPAECs). Nature of the series: BrdU Assay (proliferation), hPAEC. The series is classed as cell-based. As to conditions: dose response, FIG. 6. As to the method: as §1, §2
Series [10] is described as follows: Solubility (2.5% v/v DMSO/water). The series is classed as physicochemical.
The test system of series [11] is human pulmonary artery smooth muscle cells (hPASMCs). Nature of the series: BrdU Assay (proliferation), hPASMC. The class given is cell-based. The procedure: as §1, §2

Entries after “also recorded” stand apart in the source; their conditions may differ.

The term IC50 denotes the concentration that inhibits the measured activity by half. In the case of `O=C(/C=C/c1cccnc1)NCCCCC1CCN(C(=O)c2ccccc2)CC1` [FK866], in series [1], the renal toxicity result is listed as “exhibit renal toxicity”. This compound also registered an IC50 in series [2] (Homo sapiens, Endothelial cell, 24 h) of 60.3 µM. In addition, in [3], the “vascular remodeling caused by PAH” value is “prevent and reverse”.
Consider `Cl.O=C(/C=C/c1cccnc1)NCCCCCC(=O)N1c2ccccc2CC1c1ccccc1` (stereo not drawn) [DGMS-RAR-7•HCl], for which the 50% inhibitory concentration (IC50) on NAMPT was 0.015 µM; in [4] it was 116 µM; in [5] (hPAEC, 24 h treatment), 13.9 µM; in series [2] it was 26.6 µM; in series [7] (Homo sapiens, Endothelial cell, hPAEC), 183 µM; in [8] (Homo sapiens, 24 h, hPASMC, 24 h treatment), 31.1 µM. The same compound registered an IC50 in series [11] of 63.9 µM. The “effect on HPAEC viability” value in series [5] (dose response, FIG. 4) is given as “dose-dependently decrease cell viability; also recorded: reduction”. In addition, the “effect on HPAEC proliferation (CYQuant Direct assay)” value in [2] (listed as DGMS-RAR-7-HCl) is “dose-dependently decrease cell proliferation”; in series [2] (listed as DGMS-RAR-7.HCl) it was “reduction”. Besides, the “effect on HPASMC proliferation (CYQuant Direct assay)” value in series [6] was “dose-dependently decrease cell proliferation”. Also, the “effect on HPAEC apoptosis” value in [7] (dose response, FIG. 7) is reported as “dose-dependently decrease apoptosis”. For the same compound, the “effect on HPASMC viability” value in series [8] (dose response, FIG. 8) was “dose-dependently decrease cell viability”. The “effect on HPAEC proliferation (BrdU assay)” value in series [9] is given as “dose-dependently decrease cell proliferation”. The “Solubility (2.5% v/v DMSO/water)” value in [10] is listed as “Good”.
